From the supplement of paper PMC10307832 come the findings set out here.

Experiment in all cases: relative viability (nuclei count vs DMSO), 5 days (fraction); higher = more cells survive
Compound in the test “Masitinib + Navitoclax”: Cc1ccc(NC(=O)c2ccc(CN3CCN(C)CC3)cc2)cc1Nc1nc(-c2cccnc2)cs1 [Masitinib] + CC1(C)CCC(c2ccc(Cl)cc2)=C(CN2CCN(c3ccc(C(=O)NS(=O)(=O)c4ccc(N[C@H](CCN5CCOCC5)CSc5ccccc5)c(S(=O)(=O)C(F)(F)F)c4)cc3)CC2)C1 [Navitoclax] (partner 0.5 µM)
The method in brief: (§1)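 A single step with final 0.05% Triton X-100, 1% formaldehyde and 1 ug/ml Hoechst fixed the cells and stained nuclei 5 days after treatment. Lung cancer cell lines in 1536-well plates had been treated by pin tool the day after seeding with one drug alone or a fixed anchor-drug dose plus five library-drug doses (not always all listed) in √10 steps, and nuclei were counted on 4× images. Relative viability is the ratio of nuclei in treated wells to nuclei in vehicle wells, taken as the median of duplicate plates.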

Compound in the test “Masitinib + OSI-027”: Cc1ccc(NC(=O)c2ccc(CN3CCN(C)CC3)cc2)cc1Nc1nc(-c2cccnc2)cs1 [Masitinib] + COc1cccc2cc(-c3nc([C@H]4CC[C@H](C(=O)O)CC4)n4ncnc(N)c34)[nH]c12 [OSI-027] (partner 0.5 µM)
The method in brief: as §1

Compound in test [1]: CC1=CC(=CC=C1)NC2=NC(=CS2)C3=CC=NC=C3 + Cc1nc(Nc2ncc(C(=O)Nc3c(C)cccc3Cl)s2)cc(N2CCN(CCO)CC2)n1 [Dasatinib] (partner 0.075 µM)
The method in brief: as §1

Compound in the test “Masitinib + Trametinib”: Cc1ccc(NC(=O)c2ccc(CN3CCN(C)CC3)cc2)cc1Nc1nc(-c2cccnc2)cs1 [Masitinib] + CC(=O)Nc1cccc(-n2c(=O)n(C3CC3)c(=O)c3c(Nc4ccc(I)cc4F)n(C)c(=O)c(C)c32)c1 [Trametinib] (partner 0.02 µM)
The method in brief: as §1

In the case of UMC-11, the relative viability with Masitinib + Navitoclax (first compound 0.01 µM) was found to be 0.286; in the test with Masitinib + Navitoclax (first compound 0.03162 µM), 0.321; with Masitinib + Navitoclax (first compound 0.1 µM), 0.353; with Masitinib + Navitoclax (first compound 0.3162 µM), 0.338; with Masitinib + Navitoclax (first compound 1 µM), 0.353; with Masitinib + OSI-027 (first compound 0.03162 µM), 0.46. In addition, the relative viability came out at 0.487 with Masitinib + OSI-027 (first compound 0.1 µM); 0.491 in the test with Masitinib + OSI-027 (first compound 0.3162 µM); 0.46 in the test with Masitinib + OSI-027 (first compound 1 µM); 0.477 in test [1] (first compound 0.08 µM); 0.494 in test [1] (first compound 0.253 µM); 0.468 in test [1] (first compound 0.8 µM). Moreover, the relative viability in test [1] (first compound 2.53 µM) was 0.481; in test [1] (first compound 8 µM) it was 0.534; in the test with Masitinib + Trametinib (first compound 0.01 µM), 0.431; with Masitinib + Trametinib (first compound 0.03162 µM), 0.588; in the test with Masitinib + Trametinib (first compound 0.1 µM), 0.617; in the test with Masitinib + Trametinib (first compound 0.3162 µM), 0.627. Further, the relative viability with Masitinib + Trametinib (first compound 1 µM) is 0.804.
